Experimental data as given in patent publication US20090203661A1, “Betulinic acid, derivatives and analogs thereof and uses therefor” (priority 2006, published 2009).

Experiments:
3T3-L1 adipocytes = assay: 3T3-L1 differentiation and Oil Red O staining; type: cell-based; conditions: 0.25 μM
Description: 3T3-L1 preadipocytes were cultured on poly-lysine-coated coverslips with DMEM and 10% FBS at 5% CO2 in 24-well plates. At 2 days post-confluence, cells were incubated with fresh media supplemented with 3-isobutyl-1-methylxanthine (0.5 mM), dexamethasone (1 μM), insulin (1.7 μM), and indicated compounds (0.25 μM). After 48 hr, cells were changed to fresh media and treated with DMSO or indicated compounds for 5 days. Cells without any treatment for the entire 7 days were used as control. The cells were then fixed with 10% formalin. Fixed cells were washed with 60% isopropanol and stained with filtered 60% Oil Red O in deionized water. After staining, cells were washed with water and photographed.

p21 promoter [1] = assay: p21 promoter luciferase transactivation in Panc-28 cells; type: cell-based, human; conditions: for transactivation, p21-luc(Fl) (−2325 to +8): Panc-28; for effect of T007 on induced p21-luc(Fl) luciferase activity: cotreatment with T007
Description: Cells were seeded onto the 12-well plates and 0.4 μg of GAL4-Luc, 0.04 μg of β-GAL, 0.04 μg of GAL4DBD-PPARγ, and 0.4 μg of p21-luc(FL) containing −2325 to +8 insert, 0.4 μg of p21-luc (−124) containing −124 to +8 insert and 0.4 μg of p21-LUC (−60) containing −60 to +8 insert were transfected using LipofectAMINE reagent (Invitrogen) following the manufacturer's protocol. Cells were treated either with vehicle or respective compounds suspended in complete medium after 6 hr of transfection. Cell lysate is extracted after 20-22 hr by adding 100 μl of 1× reporter lysis buffer per well and 30 μl of this extract is used to quantitate the luciferase activity using Lumicount (Perkin-Elmer Life and Analytical Sciences). Each experiment is done in triplicate and the results are normalized to the β-GAL activity.

p21 promoter [2] = assay: Chromatin immunoprecipitation (ChIP) assay, p21 promoter, Panc-28 cells; type: cell-based, human; conditions: 5 μM, 1 or 2 hr
Description: Panc-28 cells were treated with the different compounds as indicated for 24 hr and whole cell lysates were obtained and analyzed by immunoblots. […] Cells were transfected with the various constructs, treated with DMSO, BA, CN-BA, CN-BA-Me alone or in combination with T007, and luciferase activity determined. Results of all transactivation studies in this Figure are presented as means±SE for at least three separate determinations for each treatment group. Significant (p<0.05) induction compared to solvent (DMSO) control (*) and inhibition by cotreatment with T007 (**) are indicated. FIGS. 10D-10F show chromatin immunoprecipitation assays. Primers designed for the proximal region of the p21 promoter (FIG. 10D) were used for a ChIP assay in Panc-28 cells (FIG. 10E) treated with DMSO, 5 μM BA, 5 μM CN-BA, and 5 μM CN-BA-Me for 1 or 2 hr. Analysis of interactions of Sp1 and PPARγ with the p21 promoter were carried out in the ChIP assay as described. The ChIP assay was also used to examine binding of TFIIB to the GAPDH promoter (positive control) (FIG. 10F) and to exon 1 of CNAP1 (negative control).
The ligand-dependent recruitment of PPARγ to the p21 promoter by CN-BA and CN-BA-Me was examined using a ChIP assay of Panc-28 cells treated with the betulinic acid, CN-BA and CN-BA-Me for 1 or 2 hr. […] This is consistent with receptor-independent activation of p21 by betulinic acid and the mechanism of this response is currently being investigated. As a control for this experiment, transcription factor TFIIb bound to the proximal region of the GAPDH gene promoter but not to exon-1 of the CNAP1 gene.

HT-29 cells = assay: Caveolin-1 expression (Western blot) in HT-29 cells; type: cell-based, human; conditions: for caveolin-1 induction: HT-29, 72 hr; for effect of T007 on induced caveolin-1 response: HT-29, cotreatment with T007
Description: SW480, HT-29, HCT-15 and Panc-28 (3×10^5) colon cancer cells were seeded in 6-well tissue culture plates in DMEM/Ham's F-12 medium containing 2.5% charcoal-stripped FBS. Protein is extracted from the cells treated either with vehicle or indicated compounds suspended for 24 hr except for caveolin-1 protein which was done for 72 hr. Samples were extracted in high salt buffer [50 mmol/L HEPES, 500 mmol/L NaCl, 1.5 mmol/L MgCl2, 1 mmol/L EGTA, 10% glycerol, and 1% Triton X-100 (pH 7.5), and 5 μL/mL protease inhibitor cocktail (Sigma-Aldrich)]. Samples were incubated at 100° C. for 2 min, separated on either 10% or 12% SDS-PAGE gels and then transferred to polyvinylidene difluoride membrane (PVDF; Bio-Rad, Hercules, Calif.). The PVDF membrane was blocked in 5% TBST-Blotto (10 mM Tris HCl, 150 mM NaCl, pH 8.0, 0.05% Triton X-100, and 5% nonfat dry milk) for about 30 min and was then incubated in fresh 5% TBST-Blotto with 1:1000 for caveolin-1 (Santa Cruz Biotechnology, Santa Cruz, Calif.), 1:1000 for p21 (BD Pharmingen, Frank lakes, NJ) and 1:10000 for β-actin (Sigma) primary antibody overnight with gentle shaking at 4° C. After washing with TBST for 10 min, the membrane was incubated with respective secondary antibody (1:5000) (Santa cruz, Calif.) in 5% TBST-Blotto for 3 hr. The membrane is then washed with TBST for 10 min, incubated with chemiluminiscence reagent from Perkin Elmer for one min and then exposed to Kodak X-OMAT AR autoradiography film (Eastman Kodak, Rochester, N.Y.).

PPARγ-GAL4 chimera = PPARγ-GAL4 chimera activation (FIG. 13C); type: cell-based

Row | Compound | Oil Red O staining (fat droplets) (3T3-L1 adipocytes) | transactivation, p21-luc(Fl) (−2325 to +8) (p21 promoter [1]) | effect of T007 on induced p21-luc(Fl) luciferase activity (p21 promoter [1]) | Sp1 binding to p21 promoter (p21 promoter [2]) | recruitment of PPARγ to proximal GC-rich region of p21 promoter (p21 promoter [2]) | caveolin-1 induction (HT-29 cells) | effect of T007 on induced caveolin-1 response (HT-29 cells) | activation of PPARγ-GAL4 chimera (PPARγ-GAL4 chimera) | concentration giving significant induction of p21-luc(60) (p21 promoter [1]; construct lacking GC-rich sites 3 and 4)
1 | COC(=O)C12CCC(C(C)C)C1C1CCC3C4(C)C=C(C#N)C(=O)C(C)(C)C4CCC3(C)C1(C)CC2 (centres unmarked) [CN-BA-Me, Methyl 2-cyano-lup-1-en-3-oxo-20-oate] | induce Oil Red O staining | induce transactivation | inhibited | enhanced binding of Sp1 | recruited PPARγ | induce caveolin-1 | inhibition of the induced caveolin-1 response |  | 
2 | C=C(C)[C@@H]1CC[C@]2(C(=O)O)CC[C@]3(C)[C@H](CC[C@@H]4[C@@]5(C)CC[C@H](O)C(C)(C)[C@@H]5CC[C@]43C)[C@@H]12 [betulinic acid, Betulinic acid] |  |  |  |  |  |  |  | inactive | 
3 | CC(C)C1CCC2(C(=O)O)CCC3(C)C(CCC4C5(C)C=C(C#N)C(=O)C(C)(C)C5CCC43C)C12 (centres unmarked) [CN-BA] | induce Oil Red O staining | induce transactivation | inhibited | enhanced binding of Sp1 | recruited PPARγ | induce caveolin-1 | inhibition of the induced caveolin-1 response | activates | 7.5 µM
